17 molecules from PubChem BioAssay AID330 (DTP/NCI, 2004) can be followed below.

Several values for one entry are separate records, joined by “and”; a condition that tells them apart may be missing. Equal values may be shown once. Inconclusive results and toxic doses are left out.

The assay concerns P388 leukemia ip, CD2F1 mice, survival T/C. Nature of the assay: NCI In Vivo Anticancer Drug Screen. Data for tumor model P388 Leukemia (intraperitoneal) in CD2F1 (CDF1) mice. Conditions: endpoint: median survival time, higher = longer survival. The gist of the method:
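Mice carrying the transplanted tumor received test compound or vehicle. Survival was recorded in each group, and the value is the treated-group measurement divided by that of the vehicle-treated control group.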

Where [1] appears, read: dose: 50.0 mg/kg/injection, schedule: Q01DX005 (ip), vehicle: Klucel (hydroxypropylcellulose) (HPC).
Setting [2] is: dose: 100.0 mg/kg/injection, schedule: Q01DX005 (ip), vehicle: Klucel (hydroxypropylcellulose) (HPC).
[3] abbreviates: dose: 100.0 mg/kg/injection, schedule: Q01DX009 (ip), vehicle: saline.
Setting [4] is: dose: 200.0 mg/kg/injection, schedule: Q01DX009 (ip), vehicle: saline.
Where [5] appears, read: dose: 50.0 mg/kg/injection, schedule: Q01DX005 (ip), vehicle: saline with Tween-80.
The mark [6] stands for this setting: dose: 100.0 mg/kg/injection, schedule: Q01DX005 (ip), vehicle: saline with Tween-80.
[7] abbreviates: dose: 50.0 mg/kg/injection, schedule: Q01DX009 (ip), vehicle: saline.

Take `S=C(Nc1ccccc1)P(c1ccccc1)c1ccccc1.[Ir]`: the T/C was 90 % of control under setting [1]; 99 % of control under setting [2]; 97 % of control (dose: 200.0 mg/kg/injection, schedule: Q01DX005 (ip), vehicle: Klucel (hydroxypropylcellulose) (HPC)).
Take `O=C1C(O)[C@@H](O)C(=O)N1Cc1ccccc1` (stereo partly specified): the T/C is, setting by setting: (dose: 60.0 mg/kg/injection, schedule: Q01DX005 (ip), vehicle: Klucel (hydroxypropylcellulose) (HPC)) 97 % of control; (dose: 120.0 mg/kg/injection, schedule: Q01DX005 (ip), vehicle: Klucel (hydroxypropylcellulose) (HPC)) 102 % of control; (dose: 240.0 mg/kg/injection, schedule: Q01DX005 (ip), vehicle: Klucel (hydroxypropylcellulose) (HPC)) 93 % of control.
As for `CC(C)COC1OCCCC1C(OCC(C)C)C(C)C` (stereo unspecified), the T/C under setting [3] was 108 % of control; the T/C under setting [4] was 113 % of control; the T/C (dose: 400.0 mg/kg/injection, schedule: Q01DX009 (ip), vehicle: saline) is 99 % of control.
With `CCCC1CCCCN1Cc1ccccc1` (stereo unspecified), the T/C under setting [5] is 107 % of control and the T/C under setting [6] was 104 % of control.
As to `CCN(CC)CCOC(=O)c1c(C)cc(C)cc1C`, the T/C reads like this: (dose: 25.0 mg/kg/injection, schedule: Q04DX003 (ip), vehicle: saline) 100 % of control; (dose: 50.0 mg/kg/injection, schedule: Q04DX003 (ip), vehicle: saline) 106 % of control; (dose: 100.0 mg/kg/injection, schedule: Q04DX003 (ip), vehicle: saline) 93 % of control.
On to `CCOC(=O)c1ccc(NN=NCCOC)cc1`, for which the T/C reads like this: (dose: 12.5 mg/kg/injection, schedule: Q01DX009 (ip), vehicle: distilled water + Tween-80) 102 % of control; (dose: 25.0 mg/kg/injection, schedule: Q01DX009 (ip), vehicle: distilled water + Tween-80) 101 % of control and 105 % of control; (dose: 50.0 mg/kg/injection, schedule: Q01DX009 (ip), vehicle: distilled water + Tween-80) 122 % of control and 123 % of control.
In the case of `CC1OC(O[C@H]2CC[C@]3(C=O)[C@H]4CC[C@]5(C)[C@@H](C6=COC(=O)C6)CC[C@]5(O)[C@@H]4CC[C@]3(O)C2)C(O)C(O)C1OC1OC(CO)C(O)C(O)C1O` (stereo partly specified), the T/C is 101 % of control (dose: 25.0 mg/kg/injection, schedule: Q01DX005 (ip), vehicle: Klucel (hydroxypropylcellulose) (HPC)) and 98 % of control under setting [1].
Regarding `COC(=O)[C@@H]1c2cc3c(c(O)c2[C@@H](OC2OC(C)C(OC)C(C)(OC)C2OC)C[C@]1(C)O)C(=O)c1c(O)cc2c(c1C3=O)O[C@H]1O[C@]2(C)[C@H](O)[C@@H](N(C)C)[C@@H]1O` (stereo partly specified), the T/C runs as follows: (dose: 0.12 mg/kg/injection, schedule: Q01DX009 (ip), vehicle: saline) 120 % of control; (dose: 0.25 mg/kg/injection, schedule: Q01DX009 (ip), vehicle: other) 122 % of control; (dose: 0.25 mg/kg/injection, schedule: Q01DX010 (ip), vehicle: saline) 110 % of control; (dose: 0.25 mg/kg/injection, schedule: Q04DX003 (ip), vehicle: other) 116 % of control; (dose: 0.25 mg/kg/injection, schedule: Q04DX003 (ip), vehicle: saline) 117 % of control; (dose: 0.43 mg/kg/injection, schedule: Q04DX003 (ip), vehicle: water) 112 % of control. Besides, the T/C is 118 % of control (dose: 0.5 mg/kg/injection, schedule: Q01DX009 (ip), vehicle: other); 105 % of control (dose: 0.5 mg/kg/injection, schedule: Q01DX010 (ip), vehicle: saline); 109 % of control (dose: 0.5 mg/kg/injection, schedule: Q04DX003 (ip), vehicle: other); 119 % of control (dose: 0.52 mg/kg/injection, schedule: Q04DX003 (ip), vehicle: clinical formulation); 115 % of control (dose: 0.72 mg/kg/injection, schedule: Q04DX003 (ip), vehicle: water); 121 % of control (dose: 0.86 mg/kg/injection, schedule: Q04DX003 (ip), vehicle: clinical formulation). Besides, the T/C was 91 % of control (dose: 1.0 mg/kg/injection, schedule: Q01DX009 (ip), vehicle: other); 86 % of control (dose: 1.0 mg/kg/injection, schedule: Q01DX009 (ip), vehicle: saline + alcohol); 150 % of control (dose: 1.0 mg/kg/injection, schedule: Q01DX009 (ip), vehicle: saline); 100 % of control (dose: 1.0 mg/kg/injection, schedule: Q01DX010 (ip), vehicle: saline); 114 % of control (dose: 1.44 mg/kg/injection, schedule: Q04DX003 (ip), vehicle: clinical formulation); 107 % of control (dose: 2.4 mg/kg/injection, schedule: Q04DX003 (ip), vehicle: clinical formulation). Further, the T/C reads like this: (dose: 3.33 mg/kg/injection, schedule: Q04DX003 (ip), vehicle: water) 120 % of control; (dose: 125.0 micrograms/kg/injection, schedule: Q01DX009 (ip), vehicle: other) 111 % of control; (dose: 375.0 micrograms/kg/injection, schedule: Q04DX003 (ip), vehicle: saline) 121 % of control; (dose: 500.0 micrograms/kg/injection, schedule: Q04DX003 (ip), vehicle: saline) 118 % of control; (dose: 1000.0 micrograms/kg/injection, schedule: Q01DX009 (ip), vehicle: saline) 114 % of control; (dose: 1500.0 micrograms/kg/injection, schedule: Q01DX009 (ip), vehicle: saline) 92 % of control. Moreover, for the setting “dose: 3000.0 micrograms/kg/injection, schedule: Q04DX003 (ip), vehicle: saline”, the T/C was 91 % of control.
Regarding `S=C(Nc1cc(Cl)cc(Cl)c1)SCc1ccccc1`, the T/C under setting [7] is 100 % of control, the T/C under setting [3] was 99 % of control and the T/C under setting [4] was 107 % of control.
As to `CC(=O)OCC1OC(n2cnc3c(N)ncnc32)C2OC(C)(C)OC12` (stereo unspecified), the T/C by setting is: under setting [1], 101 % of control; under setting [2], 97 % of control.
As to `CCOC(=O)Cc1cn2cc(Cl)cc(Cl)c2n1`, the T/C is 111 % of control (dose: 100.0 mg/kg/injection, schedule: Q04DX003 (ip), vehicle: saline with Tween-80); 100 % of control (dose: 200.0 mg/kg/injection, schedule: Q04DX003 (ip), vehicle: saline with Tween-80); 100 % of control (dose: 400.0 mg/kg/injection, schedule: Q04DX003 (ip), vehicle: saline with Tween-80).
On to `CCn1c2c(c3ccccc3c1=O)C(=O)c1ccccc1-2`, for which the T/C runs as follows: under setting [5], 103 % of control; under setting [6], 103 % of control; (dose: 200.0 mg/kg/injection, schedule: Q01DX005 (ip), vehicle: saline with Tween-80) 94 % of control.
Take `Cc1nnc2c(N)nccn12`: the T/C is, setting by setting: (dose: 100.0 mg/kg/injection, schedule: Q01DX001 (ip), vehicle: Klucel (hydroxypropylcellulose) (HPC)) 94 % of control; (dose: 200.0 mg/kg/injection, schedule: Q01DX001 (ip), vehicle: Klucel (hydroxypropylcellulose) (HPC)) 96 % of control.
Take `CCOC(=O)C(=O)N1c2c(nc(N)[nH]c2=O)NCC1CNc1ccc(C(=O)NC(CCC(=O)O)C(=O)O)cc1` (stereo unspecified) (tested in a mixture with another compound): the T/C runs as follows: (dose: 50.0 mg/kg/injection, schedule: Q01DX001 (ip), vehicle: saline) 111 % of control; (dose: 100.0 mg/kg/injection, schedule: Q01DX001 (ip), vehicle: saline) 101 % of control; (dose: 200.0 mg/kg/injection, schedule: Q01DX001 (ip), vehicle: saline) 101 % of control.
For the molecule `Nc1ncnc2[nH]c(=S)[nH]c12`, the T/C was 110 % of control (dose: 1.56 mg/kg/injection, schedule: Q01DX005 (ip), vehicle: Klucel (hydroxypropylcellulose) (HPC)); 94 % of control (dose: 3.12 mg/kg/injection, schedule: Q01DX005 (ip), vehicle: Klucel (hydroxypropylcellulose) (HPC)); 99 % of control and 97 % of control (dose: 6.25 mg/kg/injection, schedule: Q01DX005 (ip), vehicle: Klucel (hydroxypropylcellulose) (HPC)).
Turning to `N/C(=N\OC(=O)Nc1ccc(Cl)c(Cl)c1)c1ccccc1`, the T/C was 101 % of control under setting [7], 104 % of control under setting [3] and 100 % of control under setting [4].
Consider `C=C1C(=O)CCC1C(=O)O` (stereo unspecified), for which the T/C was 100 % of control (dose: 178.0 mg/kg/injection, schedule: Q01DX001 (ip), vehicle: saline); 109 % of control (dose: 266.0 mg/kg/injection, schedule: Q01DX001 (ip), vehicle: saline); 114 % of control (dose: 400.0 mg/kg/injection, schedule: Q01DX001 (ip), vehicle: saline); 118 % of control (dose: 600.0 mg/kg/injection, schedule: Q01DX001 (ip), vehicle: saline); 112 % of control (dose: 900.0 mg/kg/injection, schedule: Q01DX001 (ip), vehicle: saline).
